Experimental data as given in ChEMBL document CHEMBL3044556, “Managing weeds with drip-applied herbicides in tomato” (2008).

How the values were obtained:
Type in all cases: functional
[1] = tested on: Amaranthus dubius; assay: Pre-emergence herbicidal activity against Amaranthus dubius in tomato field assessed as number of weeds at 2.28 kg/ha applied through drip lines/backpack-spray on week 3 to 4 before transplanting measured 7 weeks after treatment (reference value: 9 plants/m2)
[2] = tested on: Poaceae; assay: Pre-emergence herbicidal activity against Poaceae (grass family) in tomato field assessed as number of weeds at 2.28 kg/ha applied through drip lines/backpack-spray on week 3 to 4 before transplanting measured 7 weeks after treatment (reference value: 6 plants/m2)
[3] = tested on: Corynandra viscosa; assay: Pre-emergence herbicidal activity against Cleome viscosa in tomato field assessed as number of weeds at 2.28 kg/ha applied through drip lines/backpack-spray on week 3 to 4 before transplanting measured 12 weeks after treatment (reference value: 9 plants/m2)
[4] = tested on: Portulaca oleracea; assay: Pre-emergence herbicidal activity against Portulaca oleracea in tomato field assessed as number of weeds at 2.28 kg/ha applied through drip lines/backpack-spray on week 3 to 4 before transplanting measured 12 weeks after treatment (reference value: 9 plants/m2)
[5] = tested on: Digitaria; assay: Pre-emergence herbicidal activity against Digitaria spp. in tomato field assessed as number of weeds at 2.28 kg/ha applied through drip lines/backpack-spray on week 3 to 4 before transplanting measured 7 weeks after treatment (reference value: 9 plants/m2)
[6] = tested on: Eleusine indica; assay: Pre-emergence herbicidal activity against Eleusine indica in tomato field assessed as total fruit weight at 2.28 kg/ha applied through drip lines/backpack-spray on week 3 to 4 before transplanting (reference value: 13.7 t/ha); details: pooled result: one value given for 8 cell lines, strains, targets or settings
[7] = tested on: Eleusine indica; assay: Pre-emergence herbicidal activity against Eleusine indica in tomato field assessed as number of extra-large fruits at 2.28 kg/ha applied through drip lines/backpack-spray on week 3 to 4 before transplanting (reference value: 21.3 x 10 '3 ha); details: pooled result: one value given for 8 cell lines, strains, targets or settings
[8] = tested on: Echinochloa colona; assay: Pre-emergence herbicidal activity against Echinochloa colona in tomato field assessed as number of weeds at 2.28 kg/ha applied through drip lines/backpack-spray on week 3 to 4 before transplanting measured 7 weeks after treatment (reference value: 9 plants/m2)
[9] = tested on: Amaranthus dubius; assay: Pre-emergence herbicidal activity against Amaranthus dubius in tomato field assessed as number of weeds at 2.28 kg/ha applied through drip lines/backpack-spray on week 3 to 4 before transplanting measured 12 weeks after treatment (reference value: 9 plants/m2)
[10] = tested on: Trianthema; assay: Pre-emergence herbicidal activity against Trianthema spp. in tomato field assessed as total number of fruits at 2.28 kg/ha applied through drip lines/backpack-spray on week 3 to 4 before transplanting (reference value: 49.5 x 10 '3 ha); details: pooled result: one value given for 8 cell lines, strains, targets or settings
[11] = tested on: Cyperus; assay: Pre-emergence herbicidal activity against Cyperus in tomato field assessed as number of weeds at 2.28 kg/ha applied through drip lines/backpack-spray on week 3 to 4 before transplanting measured 7 weeks after treatment (reference value: 3 plants/m2)
[12] = tested on: Trianthema; assay: Pre-emergence herbicidal activity against Trianthema spp. in tomato field assessed as number of weeds at 2.28 kg/ha applied through drip lines/backpack-spray on week 3 to 4 before transplanting measured 7 weeks after treatment (reference value: 9 plants/m2)
[13] = tested on: Portulaca oleracea; assay: Pre-emergence herbicidal activity against Portulaca oleracea in tomato field assessed as number of weeds at 2.28 kg/ha applied through drip lines/backpack-spray on week 3 to 4 before transplanting measured 7 weeks after treatment (reference value: 9 plants/m2)
[14] = tested on: Amaranthus dubius; assay: Pre-emergence herbicidal activity against Amaranthus dubius in tomato field assessed as extra-large fruit weight at 2.28 kg/ha applied through drip lines/backpack-spray on week 3 to 4 before transplanting (reference value: 7.3 t/ha); details: pooled result: one value given for 8 cell lines, strains, targets or settings
[15] = tested on: Trianthema; assay: Pre-emergence herbicidal activity against Trianthema spp. in tomato field assessed as number of weeds at 2.28 kg/ha applied through drip lines/backpack-spray on week 3 to 4 before transplanting measured 12 weeks after treatment (reference value: 9 plants/m2)
[16] = tested on: Digitaria; assay: Pre-emergence herbicidal activity against Digitaria spp. in tomato field assessed as number of weeds at 2.28 kg/ha applied through drip lines/backpack-spray on week 3 to 4 before transplanting measured 12 weeks after treatment (reference value: 9 plants/m2)
[17] = tested on: Poaceae; assay: Pre-emergence herbicidal activity against Poaceae (grass family) in tomato field assessed as number of weeds at 2.28 kg/ha applied through drip lines/backpack-spray on week 3 to 4 before transplanting measured 12 weeks after treatment (reference value: 8 plants/m2)
[18] = tested on: Boerhavia erecta; assay: Pre-emergence herbicidal activity against Boerhavia erecta in tomato field assessed as number of weeds at 2.28 kg/ha applied through drip lines/backpack-spray on week 3 to 4 before transplanting measured 12 weeks after treatment (reference value: 9 plants/m2)
[19] = tested on: Boerhavia erecta; assay: Pre-emergence herbicidal activity against Boerhavia erecta in tomato field assessed as number of weeds at 2.28 kg/ha applied through drip lines/backpack-spray on week 3 to 4 before transplanting measured 7 weeks after treatment (reference value: 9 plants/m2)
[20] = tested on: Cyperus; assay: Pre-emergence herbicidal activity against Cyperus in tomato field assessed as number of weeds at 2.28 kg/ha applied through drip lines/backpack-spray on week 3 to 4 before transplanting measured 12 weeks after treatment (reference value: 5 plants/m2)
[21] = tested on: Corynandra viscosa; assay: Pre-emergence herbicidal activity against Cleome viscosa in tomato field assessed as number of weeds at 2.28 kg/ha applied through drip lines/backpack-spray on week 3 to 4 before transplanting measured 7 weeks after treatment (reference value: 9 plants/m2)
[22] = tested on: Eleusine indica; assay: Pre-emergence herbicidal activity against Eleusine indica in tomato field assessed as number of weeds at 2.28 kg/ha applied through drip lines/backpack-spray on week 3 to 4 before transplanting measured 7 weeks after treatment (reference value: 9 plants/m2)
[23] = tested on: Echinochloa colona; assay: Pre-emergence herbicidal activity against Echinochloa colona in tomato field assessed as number of weeds at 2.28 kg/ha applied through drip lines/backpack-spray on week 3 to 4 before transplanting measured 12 weeks after treatment (reference value: 9 plants/m2)
[24] = tested on: Eleusine indica; assay: Pre-emergence herbicidal activity against Eleusine indica in tomato field assessed as number of weeds at 2.28 kg/ha applied through drip lines/backpack-spray on week 3 to 4 before transplanting measured 12 weeks after treatment (reference value: 9 plants/m2)
[25] = tested on: Boerhavia erecta; assay: Pre-emergence herbicidal activity against Boerhavia erecta in tomato field assessed as number of weeds at 4.56 kg/ha applied through drip lines/backpack-spray on week 3 to 4 before transplanting measured 12 weeks after treatment (reference value: 9 plants/m2)
[26] = tested on: Poaceae; assay: Pre-emergence herbicidal activity against Poaceae (grass family) in tomato field assessed as number of weeds at 4.56 kg/ha applied through drip lines/backpack-spray on week 3 to 4 before transplanting measured 7 weeks after treatment (reference value: 6 plants/m2)
[27] = tested on: Eleusine indica; assay: Pre-emergence herbicidal activity against Eleusine indica in tomato field assessed as total fruit weight at 4.56 kg/ha applied through drip lines/backpack-spray on week 3 to 4 before transplanting (reference value: 13.7 t/ha); details: pooled result: one value given for 8 cell lines, strains, targets or settings
[28] = tested on: Echinochloa colona; assay: Pre-emergence herbicidal activity against Echinochloa colona in tomato field assessed as number of weeds at 4.56 kg/ha applied through drip lines/backpack-spray on week 3 to 4 before transplanting measured 12 weeks after treatment (reference value: 9 plants/m2)
[29] = tested on: Amaranthus dubius; assay: Pre-emergence herbicidal activity against Amaranthus dubius in tomato field assessed as number of weeds at 4.56 kg/ha applied through drip lines/backpack-spray on week 3 to 4 before transplanting measured 12 weeks after treatment (reference value: 9 plants/m2)
[30] = tested on: Boerhavia erecta; assay: Pre-emergence herbicidal activity against Boerhavia erecta in tomato field assessed as number of extra-large fruits at 4.56 kg/ha applied through drip lines/backpack-spray on week 3 to 4 before transplanting (reference value: 21.3 x 10 '3 ha); details: pooled result: one value given for 8 cell lines, strains, targets or settings
[31] = tested on: Corynandra viscosa; assay: Pre-emergence herbicidal activity against Cleome viscosa in tomato field assessed as number of weeds at 4.56 kg/ha applied through drip lines/backpack-spray on week 3 to 4 before transplanting measured 12 weeks after treatment (reference value: 9 plants/m2)
[32] = tested on: Eleusine indica; assay: Pre-emergence herbicidal activity against Eleusine indica in tomato field assessed as extra-large fruit weight at 4.56 kg/ha applied through drip lines/backpack-spray on week 3 to 4 before transplanting (reference value: 7.3 t/ha); details: pooled result: one value given for 8 cell lines, strains, targets or settings
[33] = tested on: Cyperus; assay: Pre-emergence herbicidal activity against Cyperus in tomato field assessed as number of weeds at 4.56 kg/ha applied through drip lines/backpack-spray on week 3 to 4 before transplanting measured 7 weeks after treatment (reference value: 3 plants/m2)
[34] = tested on: Digitaria; assay: Pre-emergence herbicidal activity against Digitaria spp. in tomato field assessed as number of weeds at 4.56 kg/ha applied through drip lines/backpack-spray on week 3 to 4 before transplanting measured 12 weeks after treatment (reference value: 9 plants/m2)
[35] = tested on: Cyperus; assay: Pre-emergence herbicidal activity against Cyperus in tomato field assessed as number of weeds at 4.56 kg/ha applied through drip lines/backpack-spray on week 3 to 4 before transplanting measured 12 weeks after treatment (reference value: 5 plants/m2)
[36] = tested on: Trianthema; assay: Pre-emergence herbicidal activity against Trianthema spp. in tomato field assessed as number of weeds at 4.56 kg/ha applied through drip lines/backpack-spray on week 3 to 4 before transplanting measured 12 weeks after treatment (reference value: 9 plants/m2)
[37] = tested on: Poaceae; assay: Pre-emergence herbicidal activity against Poaceae (grass family) in tomato field assessed as number of weeds at 4.56 kg/ha applied through drip lines/backpack-spray on week 3 to 4 before transplanting measured 12 weeks after treatment (reference value: 8 plants/m2)
[38] = tested on: Eleusine indica; assay: Pre-emergence herbicidal activity against Eleusine indica in tomato field assessed as total number of fruits at 4.56 kg/ha applied through drip lines/backpack-spray on week 3 to 4 before transplanting (reference value: 49.5 x 10 '3 ha); details: pooled result: one value given for 8 cell lines, strains, targets or settings
[39] = tested on: Eleusine indica; assay: Pre-emergence herbicidal activity against Eleusine indica in tomato field assessed as number of weeds at 4.56 kg/ha applied through drip lines/backpack-spray on week 3 to 4 before transplanting measured 12 weeks after treatment (reference value: 9 plants/m2)
[40] = tested on: Portulaca oleracea; assay: Pre-emergence herbicidal activity against Portulaca oleracea in tomato field assessed as number of weeds at 4.56 kg/ha applied through drip lines/backpack-spray on week 3 to 4 before transplanting measured 12 weeks after treatment (reference value: 9 plants/m2)
[41] = tested on: Portulaca oleracea; assay: Pre-emergence herbicidal activity against Portulaca oleracea in tomato field assessed as number of weeds at 4.56 kg/ha applied through drip lines/backpack-spray on week 3 to 4 before transplanting measured 7 weeks after treatment (reference value: 9 plants/m2); details: pooled result: one value given for 8 cell lines, strains, targets or settings

SMILES: CCN(CC)C(=O)C(C)Oc1cccc2ccccc12 (stereo unspecified) [NAPROPAMIDE]
- Activity [1]: 4 /m2
- Activity [2]: 1 /m2
- Activity [3]: 7 /m2
- Activity [4]: 7 /m2
- Activity [5]: 4 /m2
- Activity [6]: 16.4 tons/ha
- fruit count [7]: 26.3 10^3 fruits/ha
- Activity [8]: 4 /m2
- Activity [9]: 7 /m2
- Activity [10]: 58.3 10^3 fruits/ha
- Activity [11]: 6 /m2
- Activity [12]: 4 /m2
- Activity [13]: 4 /m2
- Activity [14]: 9.1 tons/ha
- Activity [15]: 7 /m2
- Activity [16]: 7 /m2
- Activity [17]: 6 /m2
- Activity [18]: 7 /m2
- Activity [19]: 4 /m2
- Activity [20]: 9 /m2
- Activity [21]: 4 /m2
- Activity [22]: 4 /m2
- Activity [23]: 7 /m2
- Activity [24]: 7 /m2

SMILES: CCCCN(CC)C(=O)SCCC [PEBULATE]
- Activity [25]: 8 /m2
- Activity [26]: 4 /m2
- Activity [27]: 15.3 tons/ha
- Activity [28]: 8 /m2
- Activity [29]: 8 /m2
- fruit count [30]: 24.5 10³ fruits/ha
- Activity [31]: 8 /m2
- Activity [32]: 8.4 tons/ha
- Activity [33]: 4 /m2
- Activity [34]: 8 /m2
- Activity [35]: 6 /m2
- Activity [36]: 8 /m2
- Activity [37]: 5 /m2
- fruit number [38]: 55 10^3 fruits/ha
- Activity [39]: 8 /m2
- Activity [40]: 8 /m2
- Activity [41]: 14 /m2
